In publication PMC10051910 (Marine Drugs, 2023):

Tested on: COMI cells
Format: cell-based, Human

CC[C@@]1(O)C(=O)OCc2c1cc1n(c2=O)Cc2cc3ccccc3nc2-1 [camptothecin]
p53 level: massively upregulate p53
